# How the values were obtained:
# [1] = molecular target: T1, Escherichia blattae 1,3-propanediol dehydrogenase (PDD, dhaT), mutant PDD from evolved strain GEB031 (ATCC PTA-92), SEQ ID NO:4 (Shimwellia blattae, UniProt Q3ZL59, H105L); assay: PDD comparison, 1,3-propanediol dehydrogenase from evolved strain GEB031; format: biochemical, Escherichia blattae GEB031 (ATCC PTA-92); conditions: PDD from evolved strain GEB031, compared with wild type E. blattae
# T1 construct: no tag
# Procedure: (§1) Strains—Wild type ATCC 33429, E. blattae comprising the mutant PDD as described in Example 4 and having ATCC accession number PTA-92.
# (§2) Growth—Cells were grown in a complex medium at 30C 500 ml in a 2800 ml fernbach with shaking at 225 rpm for 20 hr. The medium consists of KH2PO4, 5.4 g/L; (NH4)2SO4, 1.2 g/L; MgSO47H2O, 0.4 g/L; yeast extract, 2.0 g/L; tryptone, 2.0 g/L; and glycerol, 9.2 g/L in tap water. The pH was adjusted to 7.1 with KOH before autoclaving (Honda, et al., 1980, J. Bacteriol, 143:1458–1465).
# (§3) Extract prep—Cells were harvested by centrifugation with care to avoid anaerobic conditions. Pellets were resuspended in 100 mM Tricine pH 8.2 containing 50 mM KCl and 1 mM DTT. Cells were disrupted by passage through a French pressure cell. Crude extracts were clarified by centrifugation at 20K×g for 20 min followed by 100K×g for 1 hr to yield the high speed supernatant (HSS) fraction.
# (§4) Assays—the assay for PDD was performed as described by Johnson, E. A. et al., 1987, J. Bacteriol. 169:2050–2054.
# (§5) Partial purification of PDD—HSS was separated on a 16×100 Poros 20HQ column. The buffers were A, 50 mM HEPES, pH 7.4 containing 100 uM MnCl and B, A buffer containing 500 mM KCl. The column was loaded and developed at 10 ml/min. The gradient was 10 CV wash, a linear gradient to 70% B in 10 CV, and 1 CV to 100% B. The activity was detected in the very early fractions of the gradient. […]
# [2] = test system: wild-type E. blattae; assay: Viability (plate counts) of wild-type E. blattae during glycerol fermentation with accumulation of 3HPA; format: cell-based, Escherichia blattae ATCC 33429; conditions: anaerobic glycerol fermentation, 30° C., 3HPA accumulated to 50 mM
# Procedure: FIG. 5—Glycerol fermentation of E. blattae at pH 7.0. Culture conditions are described in the text. Plate counts were by serial dilution and performed in triplicate on Luria agar plates. Substrate and 0products were measured by HPLC.
# The wild-type E. blattae and the evolved E. blattae were subjected to fermentation in the following medium: 75 g glycerol, 5 g K2HPO4.3H2O, 3 g KH2PO4, 2 g (NH4)2SO4, 0.4 g MgSO4.7H2O, 0.2 g CaCl2.2H2O, 4 mg CoCl2.2H2O, 2 g yeast extract, and 1 g peptone per liter water. The pH was maintained with 20% NaOH. Both fermentations were run at 30° C. with a N2 sparge and were inoculated with a stationary grown overnight preculture.
# The wild-type E. blattae accumulated 3HPA and stopped growing and metabolizing glycerol. The accumulation of 3HPA was high and reached 50 mM. […] After the culture had consumed all of the glycerol more was added and the culture continued converting glycerol to 1,3-propanediol.
# [3] = substrate: NC(=O)c1ccc[n+]([C@@H]2O[C@H](COP(=O)([O-])OP(=O)(O)OC[C@H]3O[C@@H](n4cnc5c(N)ncnc54)[C@H](O)[C@@H]3O)[C@@H](O)[C@H]2O)c1; assay: PDD kinetics, partially purified 1,3-propanediol dehydrogenase from wild type strain 33429; format: biochemical, Escherichia blattae ATCC 33429; conditions: other: PDD of wild type strain 33429; cofactor NAD; 30.0 °C
# Procedure: as §1, §2, §3, §4, §5
# [4] = substrate: OCCCO; assay: as above; format: biochemical, Escherichia blattae ATCC 33429; conditions: other: PDD of wild type strain 33429; substrate 1,3-propanediol; 30.0 °C
# Procedure: as §1, §2, §3, §4, §5
# T1 sequence (Q3ZL59 entry or part of it H105L): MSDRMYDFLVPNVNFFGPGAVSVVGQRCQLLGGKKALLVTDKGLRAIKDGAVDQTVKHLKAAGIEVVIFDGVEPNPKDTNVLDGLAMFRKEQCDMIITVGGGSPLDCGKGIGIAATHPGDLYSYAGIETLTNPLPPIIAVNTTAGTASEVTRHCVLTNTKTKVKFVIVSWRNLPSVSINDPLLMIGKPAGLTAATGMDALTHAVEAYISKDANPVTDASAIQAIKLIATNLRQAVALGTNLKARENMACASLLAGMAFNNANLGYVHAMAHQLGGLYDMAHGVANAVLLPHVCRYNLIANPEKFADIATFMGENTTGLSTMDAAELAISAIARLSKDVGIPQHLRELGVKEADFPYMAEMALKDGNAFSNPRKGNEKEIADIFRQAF
molecule,measurement,setting,value
"OCCCO [1,3-propanediol]","Km for 1,3-propanediol",[1],higher
"O=CCCO [3HPA, 3-hydroxy-propionaldehyde]",toxicity of accumulated 3HPA (plate counts),[2],toxic
"Escherichia blattae 1,3-propanediol dehydrogenase (PDD, dhaT), wild type, strain ATCC 33429 (Shimwellia blattae) (protein, no tag) MSDRMYDFLVPNVNFFGPGAVSVVGQRCQLLGGKKALLVTDKGLRAIKDGAVDQTVKHLKAAGIEVVIFDGVEPNPKDTNVLDGLAMFRKEQCDMIITVGGGSPHDCGKGIGIAATHPGDLYSYAGIETLTNPLPPIIAVNTTAGTASEVTRHCVLTNTKTKVKFVIVSWRNLPSVSINDPLLMIGKPAGLTAATGMDALTHAVEAYISKDANPVTDASAIQAIKLIATNLRQAVALGTNLKARENMACASLLAGMAFNNANLGYVHAMAHQLGGLYDMAHGVANAVLLPHVCRYNLIANPEKFADIATFMGENTTGLSTMDAAELAISAIARLSKDVGIPQHLRELGVKEADFPYMAEMALKDGNAFSNPRKGNEKEIADIFRQAF",Km,[3],0.057 mM
same,Km,[4],28 mM

# — patent US7125695B2, “Directed evolution of microorganisms” (Genencor International, Inc., priority 1999, dated 2006)
